# Measurements taken from US9597391B2, “Cyclic-dinucleotides and its conjugates as adjuvants and their uses in pharmaceutical compositions” (HELMHOLTZ_ZENTRUM FUER INFEKTIONSFORSCHUNG GMBH, priority 2005, dated 2017).
# Assays:
# Format in all cases: in vivo
# BALB/c (H-2d) mice [1] = experiment: Serum β-gal-specific IgG ELISA after i.n. or s.c. immunization with β-gal plus adjuvant; details: i.n., β-gal 30 μg/dose with or without adjuvant 10 μg; end point titers (FIG. 11; FIG. 2)
# Procedure: Experimental protocol: six-eight weeks-old female BALB/c (H-2d) mice were purchased from Harlan Winkelmann GmbH (Borchen, Germany) and treated in accordance with local and European Community guidelines. Groups of 5 mice each were immunized on day 1, 14 and 28 with 30 μg of β-gal (Boehringer, Mannheim, Germany), alone or as an admixture with 10 μg c-diGMP or with 10 μpg c-diAMP. For intranasal (i.n.) immunization, 10 μl were applied to each naris, whereas for the s.c. injection β-gal with or without c-diGMP or c-diAMP was resuspended in a volume of 20 μl PBS per animal. Serum samples were collected at day 38 after immunization and stored at −20° C. prior to determination of β-gal-specific antibodies. 96-well Nunc-Immuno MaxiSorp assay plates (Nunc, Roskilde, Denmark) were coated with 100 μl of β-gal (Boehringer, Mannheim, Germany) at 5 μg/ml in 0.05 M carbonate buffer (pH 8.2) per well. Serial two-fold dilutions of sera in PBS with 1% BSA and 0.05% Tween 20 were added (100 μl/well), and plates incubated for 16h at 37° C. After washing, biotinylated γ-chain-specific goat anti-mouse IgG (Sigma Chemie, Deisenhofen, Germany) was added, and plates were incubated for an additional 1 h at 37° C. After four washes, 100 μl of peroxidase-conjugated streptavidin (Pharmingen) was added to cells and plates incubated at 37° C. for 30 min. After four washes, reactions were developed with ABTS in 0.1 M citrate-phosphate buffer (pH 4.35) containing 0.01% H2O2. Results for c-diGMP are shown as OD405 values after serial two-fold dilutions (FIG. 2). […] The effect of c-diGMP as an adjuvant was independent of the route of administration.
# In contrast, in the presence of c-diAMP, i.n. administration of β-gal induced very high titers of specific IgG in all mice with titers higher than 500,000 (FIG. 11).
# In view of the above in vitro results, additional in vivo studies have been conducted. […] Thus, the capacity of c-diGMP and c-diAMP, respectively, to stimulate efficient humoral immune responses was evaluated, by determining the serum titers of β-gal-specific antibodies in vaccinated mice.
# spleen cells [2] = experiment: [3H]thymidine proliferation of spleen cells from vaccinated mice restimulated in vitro with β-gal; details: day 38, in vitro restimulation with β-gal
# Procedure: Experimental protocol: Spleens were removed and pooled for analysis of cellular immune responses. Cells were grown in RPMI 1640 supplemented with 10% fetal calf serum, 100 U/ml of penicillin, 50 μg/ml of streptomycin, 5×10^−5 M 2-mercaptoethanol and 1 mM L-glutamine (GIBCO BRL, Karlsruhe, Germany) and maintained at 37° C. in a humidified 5% CO2 atmosphere. Spleen cell suspensions were adjusted to 5×10^6 cells/ml in complete medium, cells were seeded with 100 μl per well in a flat-bottomed 96-well microtiter plate (Nunc) and plates were incubated for 4 days in the presence of different concentrations of soluble β-gal. That is, T cell mediated immune responses were investigated at day 38 by measuring the proliferation after in vitro restimulation with β-Gal of cells which have been recovered from spleens before. Said spleen cells were obtained from vaccinated mice—said mice where immunized as described in Example 2—and incubated in the presence of different concentrations of the soluble β-Gal antigen. Each concentration was tested in quadruplicates. During the final 18 h of culture, 1 μCi of [3H]thymidine (Amersham International, Freiburg, Germany) was added to each well. Cells were then harvested on paper filters (Filtermat A; Wallac, Freiburg, Germany) by using a cell harvester (Inotech, Wohlen, Switzerland), and the amount of incorporated [3H]thymidine into the DNA of proliferating cells was determined by a β-scintillation counter (Wallac 1450, Micro-Trilux). The results are expressed as the arithmetic mean of [^3H]thymidine uptake in cpm.
# Thirty eight days following vaccination, spleens cells were purified, re-stimulated in vitro in the presence of various amounts of β-galactosidase and their proliferative capacity was estimated by measuring the incorporation of [3H]thymidine into their DNA using a β-scintillation counter.
# spleen cells [3] = experiment: ELISPOT of cytokine producing spleen cells from vaccinated mice; details: i.n.; restimulation with CD8 epitope peptide (FIG. 10)
# Procedure: Experimental protocol: Spleens from vaccinated mice were removed and pooled for analysis of cellular immune responses. The protocol for vaccination was identical to the protocol described in Example 2. Cells were grown in RPMI 1640 supplemented with 10% fetal calf serum, 100 U/ml of penicillin, 50 μg/ml of streptomycin, 5×10^−5 M 2-mercaptoethanol and 1 mM L-glutamine (GIBCO BRL, Karlsruhe, Germany) and maintained at 37° C. in a humidified 5% CO2 atmosphere. […]
# For coating ELISPOT plates, said plates were incubated with 100 μl/well of purified capture antibody (10 μg/ml in coating buffer) at 4° C. overnight. After 6× washing steps, the plates were blocked with 200 μl/well of complete RPMI-1640 at room temperature for 1 hour. The activated cells were seeded at 100 μl per well and incubate at 37° C., in a 5% CO2 humidified incubator for 24 hours or 48h hours. After 5× washing steps with washing buffer and 1× step with distilled water, 100 μl/well of the biotinylated detection antibody with a concentration of 1 μg/ml in Assay Diluent was added and incubated at room temperature for 2 hrs. After further washing steps 100 μl/well of the AV-HRP at 1/1000 dilution in Assay Diluent was added and incubated at room temperature for 30 minutes. After further washing steps 100 μl/well of AEC Substrate Solution was added and developed at room temperature for 10-60 minutes until visible spots appeared. After washing steps with (3×) with 200 μl/well distilled water, the plates were air-dried and analyzed by counting the spots by an ELISPOT reader. Each concentration was tested in triplicates.
# BALB/c (H-2d) mice [4] = experiment: β-gal-specific IgA in lung and vaginal lavages of immunized mice; details: i.n. immunization, day 38, versus β-gal alone (FIG. 4, FIG. 5)
# Procedure: Experimental protocol: at day 38, mice were sacrificed and the final sampling was performed. Vaginal and lung lavages were obtained by flushing the organs with 1 ml of PBS supplemented with 50 mM EDTA, 0.1% BSA, and 10 mM PMSF. Lavages were then centrifuged to remove debris (10 min at 3000×g), and supernatant fluids were stored at −20° C. To determine the concentration of total IgA present in the lung and vaginal lavages, serial dilutions of the corresponding samples were incubated in microtiter plates that were previously coated with goat anti-mouse IgA (Sigma Chemie), as capture antibodies (100 μl/well). Serial dilutions of purified mouse IgA (Sigma Chemie) were used to generate a standard curve.
# To investigate the capacity of c-diGMP and c-diAMP, respectively, to stimulate mucosal responses against antigens co-administered by the i.n. and s.c. route, the production of β-gal-specific IgA in lung was analyzed (FIG. 5 for c-diAMP and FIG. 4 for c-diGMP) from immunized animals, immunized according to the protocol described in Example 2.
substance,measurement,setting,value
"β-gal: soluble model antigen β-galactosidase (Boehringer), given alone as comparator without adjuvant","β-gal specific IgG titer in sera, i.n. administration",BALB/c (H-2d) mice [1],very low antibody titers
same,"proliferation of spleen cells, i.n. immunization","spleen cells [2]; i.n., low amounts of antigen (FIG. 6)",failed to induce detectable cellular proliferation
same,"proliferation of spleen cells, s.c. immunization","spleen cells [2]; s.c., [3H]thymidine (FIG. 6)",significant proliferative response
same,"IFNγ producing cells, i.n. vaccination",spleen cells [3],scarcely detectable
same,β-gal-specific IgA in lung lavages,BALB/c (H-2d) mice [4],weak production
